pIC50: −log10 of the molar value.
Columns and labels:
Adenosine A2B Receptor = biological target: T1, Adenosine A2B Receptor (Homo sapiens, UniProt P29275); experiment: Activity assay of adenosine receptor modulators, Adenosine A2B Receptor (Table 1); format: biochemical; conditions: cAMP; read-out: A2BR cAMP IC50
T1 sequence (P29275 1-332): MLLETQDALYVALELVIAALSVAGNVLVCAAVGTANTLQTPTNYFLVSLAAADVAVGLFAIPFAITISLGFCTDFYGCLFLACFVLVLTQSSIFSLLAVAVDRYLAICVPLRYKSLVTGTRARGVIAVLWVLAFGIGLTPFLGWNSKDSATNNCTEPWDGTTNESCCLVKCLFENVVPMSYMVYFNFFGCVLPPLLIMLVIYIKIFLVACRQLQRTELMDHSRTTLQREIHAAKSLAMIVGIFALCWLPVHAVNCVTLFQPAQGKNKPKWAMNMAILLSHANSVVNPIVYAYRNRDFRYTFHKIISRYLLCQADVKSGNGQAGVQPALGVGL
Procedure: (§1) Compounds (e.g., adenosine receptor modulators) were tested for its biological activity. The assay results in Table 1 indicate (+ means >1 μM; ++ means 100 nM to 1 μM; +++ means <100 nM).

Adenosine A2A Receptor = Adenosine A2A Receptor (Homo sapiens, UniProt P29274); experiment: Activity assay of adenosine receptor modulators, Adenosine A2A Receptor (Table 1); format: biochemical; conditions: cAMP; read-out: A2AR cAMP IC50
Chain of Adenosine A2A Receptor (P29274 whole entry): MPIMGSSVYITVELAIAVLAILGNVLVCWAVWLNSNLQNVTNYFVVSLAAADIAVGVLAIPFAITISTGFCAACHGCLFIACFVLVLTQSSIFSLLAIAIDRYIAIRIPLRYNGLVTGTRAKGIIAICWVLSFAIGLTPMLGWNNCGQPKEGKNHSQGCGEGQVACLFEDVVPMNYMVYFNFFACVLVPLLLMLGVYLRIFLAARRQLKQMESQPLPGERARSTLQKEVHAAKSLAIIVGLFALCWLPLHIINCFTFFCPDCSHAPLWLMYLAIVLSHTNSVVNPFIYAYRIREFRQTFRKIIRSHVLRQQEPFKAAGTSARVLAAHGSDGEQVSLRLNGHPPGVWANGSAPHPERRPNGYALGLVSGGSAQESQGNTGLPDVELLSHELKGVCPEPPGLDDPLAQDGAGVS
Procedure: as §1

A1R = biological target: T2, A1R (Homo sapiens, UniProt P30542); experiment: Activity assay of adenosine receptor modulators, A1R cAMP (Table 1); format: cell-based
T2 sequence (P30542 1-326): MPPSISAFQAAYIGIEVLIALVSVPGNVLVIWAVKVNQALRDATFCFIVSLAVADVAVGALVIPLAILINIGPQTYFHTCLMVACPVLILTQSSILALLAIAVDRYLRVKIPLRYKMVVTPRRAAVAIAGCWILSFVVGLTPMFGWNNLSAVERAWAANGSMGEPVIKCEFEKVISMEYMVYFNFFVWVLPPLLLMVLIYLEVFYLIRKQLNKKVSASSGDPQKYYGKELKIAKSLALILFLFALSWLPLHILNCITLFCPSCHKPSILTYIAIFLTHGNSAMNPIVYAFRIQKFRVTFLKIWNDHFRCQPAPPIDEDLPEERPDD
Procedure: as §1

A3R = biological target: T3, A3R (Homo sapiens, UniProt P0DMS8); experiment: Activity assay of adenosine receptor modulators, A3R cAMP (Table 1); format: cell-based
T3 sequence (P0DMS8 1-318): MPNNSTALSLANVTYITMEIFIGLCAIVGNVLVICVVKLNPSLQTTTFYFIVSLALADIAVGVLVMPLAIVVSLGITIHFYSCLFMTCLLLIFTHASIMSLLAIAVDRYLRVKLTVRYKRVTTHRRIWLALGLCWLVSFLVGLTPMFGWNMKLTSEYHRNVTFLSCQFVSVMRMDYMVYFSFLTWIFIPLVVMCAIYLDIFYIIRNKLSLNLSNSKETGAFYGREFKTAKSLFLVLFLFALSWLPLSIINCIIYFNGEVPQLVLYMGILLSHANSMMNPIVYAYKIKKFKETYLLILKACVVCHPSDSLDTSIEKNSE
Procedure: as §1

| pIC50 (Adenosine A2B Receptor) | pIC50 (Adenosine A2A Receptor) | pIC50 (A1R) | pIC50 (A3R) | SMILES |
| --- | --- | --- | --- | --- |
| 6.00 to 7.00 | > 7.00 | < 6.00 | 6.00 to 7.00 | Cc1nc2nc(N[C@@H](C)c3cncc(F)c3)nc(C(=O)N3CC(NC(=O)Nc4ccccc4)C3)c2s1 [Example 65, (S)-1-(1-(5-((1-(5-Fluoropyridin-3-yl)ethyl)amino)-2-methylthiazolo[4,5-d]pyrimidine-7-carbonyl)azetidin-3-yl)-3-phenylurea] |
| > 7.00 | > 7.00 | < 6.00 | > 7.00 | Cc1nc2nc(N[C@@H](C)c3cncc(F)c3)nc(C(=O)N3CC(NC(=O)C45CCC(CC4)CC5)C3)c2s1 [Example 67, (S)—N-(1-(5-((1-(5-Fluoropyridin-3-yl)ethyl)amino)-2-methylthiazolo[4,5-d]pyrimidine-7-carbonyl)azetidin-3-yl)bicyclo[2.2.2]octane-1-carboxamide] |
| 6.00 to 7.00 | > 7.00 | < 6.00 | 6.00 to 7.00 | Cc1nc2nc(N[C@@H](C)c3cncc(F)c3)nc(C(=O)N3CC(NC(=O)C4CCOCC4)C3)c2s1 [Example 68, (S)—N-(1-(5-((1-(5-Fluoropyridin-3-yl)ethyl)amino)-2-methylthiazolo[4,5-d]pyrimidine-7-carbonyl)azetidin-3-yl)tetrahydro-2H-pyran-4-carboxamide] |
| 6.00 to 7.00 | > 7.00 | < 6.00 | 6.00 to 7.00 | Cc1nc2nc(N[C@@H](C)c3cncc(F)c3)nc(C(=O)N3CC(NC(=O)C4CC(F)(F)C4)C3)c2s1 [Example 69, (S)-3,3-Difluoro-N-(1-(5-((1-(5-fluoropyridin-3-yl)ethyl)amino)-2-methylthiazolo[4,5-d]pyrimidine-7-carbonyl)azetidin-3-yl)cyclobutane-1-carboxamide] |
| > 7.00 | > 7.00 | < 6.00 | 6.00 to 7.00 | Cc1nc2nc(N[C@@H](C)c3cncc(F)c3)nc(C(=O)N3CC(NC(=O)C4(C(F)(F)F)CC4)C3)c2s1 [Example 70, (S)—N-(1-(5-((1-(5-Fluoropyridin-3-yl)ethyl)amino)-2-methylthiazolo[4,5-d]pyrimidine-7-carbonyl)azetidin-3-yl)-1-(trifluoromethyl)cyclopropane-1-carboxamide] |
| > 7.00 | > 7.00 | < 6.00 | 6.00 to 7.00 | COc1cccc(C(=O)NC2CN(C(=O)c3nc(N[C@@H](C)c4cncc(F)c4)nc4nc(C)sc34)C2)c1 [Example 71, (S)—N-(1-(5-((1-(5-Fluoropyridin-3-yl)ethyl)amino)-2-methylthiazolo[4,5-d]pyrimidine-7-carbonyl)azetidin-3-yl)-3-methoxybenzamide] |
| 6.00 to 7.00 | > 7.00 | < 6.00 | 6.00 to 7.00 | Cc1nc2nc(N[C@@H](C)c3cncc(F)c3)nc(C(=O)N3CC(NC(=O)c4ccoc4)C3)c2s1 [Example 72, (S)—N-(1-(5-((1-(5-Fluoropyridin-3-yl)ethyl)amino)-2-methylthiazolo[4,5-d]pyrimidine-7-carbonyl)azetidin-3-yl)furan-3-carboxamide] |
| 6.00 to 7.00 | > 7.00 | < 6.00 | 6.00 to 7.00 | Cc1nc2nc(N[C@@H](C)c3cccnc3)nc(C(=O)N3CC(NC(=O)c4ccccc4)C3)c2s1 [Example 73, N-[1-[2-Methyl-5-[[(S)-1-(3-pyridyl)ethyl]amino]thiazolo[4,5-d]pyrimidine-7-carbonyl]azetidin-3-yl]benzamide] |
| 6.00 to 7.00 | > 7.00 | < 6.00 | < 6.00 | Cc1nc2nc(N[C@@H](C)c3cccnc3)nc(C(=O)N3CC(NC(=O)c4cccc(F)c4)C3)c2s1 [Example 74, 3-Fluoro-N-[1-[2-methyl-5-[[(S)-1-(3-pyridyl)ethyl]amino]thiazolo[4,5-d]pyrimidine-7-carbonyl]azetidin-3-yl]benzamide] |
